{
  "source": "paper PMC10924921",
  "about": "“Mi-2β promotes immune evasion in melanoma by activating EZH2 methylation” (Nature Communications, 2024)",
  "assay_in_all_cases": "biochemical",
  "set-up_in_all_cases": "KINOMEscan active-site competition binding panel (468 kinase assays), per cent of control at 1000 nM",
  "settings_in_all_cases": "KINOMEscan per cent of control (binding competition); read-out: Percent Control",
  "key": {"ADCK3": {"target": "T1, ADCK3 (Homo sapiens, UniProt Q8NI60)", "T1 construct": "gene COQ8A", "text": "(§1) Figure S7 / Percent Control"}, "ALK(C1156Y)": {"target": "ALK(C1156Y) (Homo sapiens, UniProt Q9UM73, C1156Y)", "sequence (Q9UM73 whole entry C1156Y)": "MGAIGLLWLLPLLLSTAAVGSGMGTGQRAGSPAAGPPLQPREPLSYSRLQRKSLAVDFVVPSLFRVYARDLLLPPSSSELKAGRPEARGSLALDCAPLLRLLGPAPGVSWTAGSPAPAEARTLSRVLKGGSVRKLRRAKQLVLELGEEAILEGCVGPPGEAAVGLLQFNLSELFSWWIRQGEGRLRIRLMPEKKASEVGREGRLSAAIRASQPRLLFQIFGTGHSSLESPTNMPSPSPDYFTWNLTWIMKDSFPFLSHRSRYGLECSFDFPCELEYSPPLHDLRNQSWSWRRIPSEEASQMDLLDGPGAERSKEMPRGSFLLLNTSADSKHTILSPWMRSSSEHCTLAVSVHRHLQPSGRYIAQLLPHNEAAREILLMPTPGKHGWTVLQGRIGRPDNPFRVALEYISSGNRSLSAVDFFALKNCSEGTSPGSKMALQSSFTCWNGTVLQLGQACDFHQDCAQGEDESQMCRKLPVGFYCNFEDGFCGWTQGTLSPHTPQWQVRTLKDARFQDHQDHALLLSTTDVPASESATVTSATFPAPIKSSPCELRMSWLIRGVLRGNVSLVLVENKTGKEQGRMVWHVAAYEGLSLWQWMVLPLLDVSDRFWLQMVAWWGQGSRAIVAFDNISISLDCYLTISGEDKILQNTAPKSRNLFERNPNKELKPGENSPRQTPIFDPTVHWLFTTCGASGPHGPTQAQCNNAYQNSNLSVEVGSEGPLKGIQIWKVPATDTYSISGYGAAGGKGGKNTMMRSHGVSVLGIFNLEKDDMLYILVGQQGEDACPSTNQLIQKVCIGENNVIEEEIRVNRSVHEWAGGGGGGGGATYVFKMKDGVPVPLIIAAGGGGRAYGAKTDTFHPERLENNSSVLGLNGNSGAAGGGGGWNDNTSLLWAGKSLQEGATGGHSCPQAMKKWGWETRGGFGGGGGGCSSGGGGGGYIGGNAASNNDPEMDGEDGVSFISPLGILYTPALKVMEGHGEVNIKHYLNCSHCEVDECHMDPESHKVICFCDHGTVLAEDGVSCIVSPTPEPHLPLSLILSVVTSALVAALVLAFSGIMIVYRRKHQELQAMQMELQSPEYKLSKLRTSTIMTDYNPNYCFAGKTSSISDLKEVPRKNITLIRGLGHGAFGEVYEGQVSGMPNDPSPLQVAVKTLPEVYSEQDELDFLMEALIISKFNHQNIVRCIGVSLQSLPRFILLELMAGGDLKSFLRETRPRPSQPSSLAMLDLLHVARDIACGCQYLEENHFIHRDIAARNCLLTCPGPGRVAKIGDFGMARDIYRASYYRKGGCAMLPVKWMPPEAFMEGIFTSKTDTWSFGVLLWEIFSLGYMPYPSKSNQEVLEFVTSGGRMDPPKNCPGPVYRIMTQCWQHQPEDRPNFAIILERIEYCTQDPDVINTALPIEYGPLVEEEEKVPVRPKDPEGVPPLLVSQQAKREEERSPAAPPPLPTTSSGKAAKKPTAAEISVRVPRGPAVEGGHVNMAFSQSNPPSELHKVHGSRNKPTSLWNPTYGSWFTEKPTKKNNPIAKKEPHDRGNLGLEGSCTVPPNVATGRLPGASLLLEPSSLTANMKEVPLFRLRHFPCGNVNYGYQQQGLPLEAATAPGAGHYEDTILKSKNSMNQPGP", "text": "as §1"}, "BMPR1A": {"target": "BMPR1A (Homo sapiens, UniProt P36894)", "text": "as §1"}, "CLK1": {"target": "CLK1 (Homo sapiens, UniProt P49759)", "text": "as §1"}, "ERBB2": {"target": "ERBB2 (Homo sapiens, UniProt P04626)", "text": "as §1"}, "FAK": {"target": "T2, FAK (Homo sapiens, UniProt Q05397)", "T2 construct": "gene PTK2", "text": "as §1"}, "FGFR2": {"target": "FGFR2 (Homo sapiens, UniProt P21802)", "text": "as §1"}, "FGR": {"target": "FGR (Homo sapiens, UniProt P09769)", "text": "as §1"}, "HCK": {"target": "HCK (Homo sapiens, UniProt P08631)", "text": "as §1"}, "KIT(D816H)": {"target": "KIT(D816H) (Homo sapiens, UniProt P10721, D816H)", "text": "as §1"}, "MAP4K4": {"target": "MAP4K4 (Homo sapiens, UniProt O95819)", "text": "as §1"}, "MEK4": {"target": "T3, MEK4 (Homo sapiens, UniProt P45985)", "T3 construct": "gene MAP2K4", "T3 sequence (P45985 whole entry)": "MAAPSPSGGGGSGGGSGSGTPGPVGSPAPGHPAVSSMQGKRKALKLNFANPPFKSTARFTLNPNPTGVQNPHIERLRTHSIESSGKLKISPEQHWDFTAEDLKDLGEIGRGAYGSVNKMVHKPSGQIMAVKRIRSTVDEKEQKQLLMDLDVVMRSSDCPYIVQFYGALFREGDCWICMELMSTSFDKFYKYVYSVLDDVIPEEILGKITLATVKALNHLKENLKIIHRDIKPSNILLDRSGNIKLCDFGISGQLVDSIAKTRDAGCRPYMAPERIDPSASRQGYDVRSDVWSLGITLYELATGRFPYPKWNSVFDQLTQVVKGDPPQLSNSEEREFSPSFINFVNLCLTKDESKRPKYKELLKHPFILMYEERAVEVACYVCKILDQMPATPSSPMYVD", "text": "as §1"}, "MLCK": {"target": "T4, MLCK (Homo sapiens, UniProt Q32MK0)", "T4 construct": "gene MYLK3", "T4 sequence (Q32MK0 whole entry)": "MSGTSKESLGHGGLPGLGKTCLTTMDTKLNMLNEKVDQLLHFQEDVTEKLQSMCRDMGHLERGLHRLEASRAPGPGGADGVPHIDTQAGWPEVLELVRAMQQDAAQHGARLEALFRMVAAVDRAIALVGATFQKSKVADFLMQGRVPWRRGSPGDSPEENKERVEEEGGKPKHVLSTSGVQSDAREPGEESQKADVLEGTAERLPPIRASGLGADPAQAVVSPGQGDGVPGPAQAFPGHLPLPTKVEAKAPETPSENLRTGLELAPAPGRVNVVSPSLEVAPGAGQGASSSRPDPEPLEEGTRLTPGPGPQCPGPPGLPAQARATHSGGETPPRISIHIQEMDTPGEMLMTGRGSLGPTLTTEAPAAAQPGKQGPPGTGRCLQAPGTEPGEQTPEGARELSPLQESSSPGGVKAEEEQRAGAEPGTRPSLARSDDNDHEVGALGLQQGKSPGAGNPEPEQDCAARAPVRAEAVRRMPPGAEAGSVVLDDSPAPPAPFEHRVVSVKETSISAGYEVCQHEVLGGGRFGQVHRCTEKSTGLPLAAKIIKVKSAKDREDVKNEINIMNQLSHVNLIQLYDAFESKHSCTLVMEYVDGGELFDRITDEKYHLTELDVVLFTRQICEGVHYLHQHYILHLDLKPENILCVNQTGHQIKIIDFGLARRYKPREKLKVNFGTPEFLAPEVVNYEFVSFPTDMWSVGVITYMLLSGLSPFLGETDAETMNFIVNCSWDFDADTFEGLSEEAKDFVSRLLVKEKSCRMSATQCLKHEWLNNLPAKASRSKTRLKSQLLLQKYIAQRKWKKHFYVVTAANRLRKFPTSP", "text": "as §1"}, "MLK1": {"target": "T5, MLK1 (Homo sapiens, UniProt P80192)", "T5 construct": "gene MAP3K9", "text": "as §1"}, "PFTAIRE2": {"target": "T6, PFTAIRE2 (Homo sapiens, UniProt Q96Q40)", "T6 construct": "gene CDK15", "T6 sequence (Q96Q40 whole entry)": "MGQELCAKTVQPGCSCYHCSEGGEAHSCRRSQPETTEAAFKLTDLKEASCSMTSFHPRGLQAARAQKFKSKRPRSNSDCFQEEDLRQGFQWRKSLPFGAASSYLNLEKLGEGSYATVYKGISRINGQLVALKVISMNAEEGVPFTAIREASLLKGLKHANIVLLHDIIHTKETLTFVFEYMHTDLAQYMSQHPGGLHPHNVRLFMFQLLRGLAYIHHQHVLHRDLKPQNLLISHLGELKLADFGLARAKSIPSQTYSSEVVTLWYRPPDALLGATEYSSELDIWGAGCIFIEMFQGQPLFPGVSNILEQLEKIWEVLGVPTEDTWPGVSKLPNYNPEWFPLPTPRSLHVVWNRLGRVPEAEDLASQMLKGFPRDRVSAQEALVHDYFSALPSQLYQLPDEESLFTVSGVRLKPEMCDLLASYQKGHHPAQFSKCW", "text": "as §1"}, "PIK3CB": {"target": "PIK3CB (Homo sapiens, UniProt P42338)", "text": "as §1"}, "PIK4CB": {"target": "T7, PIK4CB (Homo sapiens, UniProt Q9UBF8)", "T7 construct": "gene PI4KB", "text": "as §1"}, "PRKCD": {"target": "PRKCD (Homo sapiens, UniProt Q05655)", "sequence (Q05655 whole entry)": "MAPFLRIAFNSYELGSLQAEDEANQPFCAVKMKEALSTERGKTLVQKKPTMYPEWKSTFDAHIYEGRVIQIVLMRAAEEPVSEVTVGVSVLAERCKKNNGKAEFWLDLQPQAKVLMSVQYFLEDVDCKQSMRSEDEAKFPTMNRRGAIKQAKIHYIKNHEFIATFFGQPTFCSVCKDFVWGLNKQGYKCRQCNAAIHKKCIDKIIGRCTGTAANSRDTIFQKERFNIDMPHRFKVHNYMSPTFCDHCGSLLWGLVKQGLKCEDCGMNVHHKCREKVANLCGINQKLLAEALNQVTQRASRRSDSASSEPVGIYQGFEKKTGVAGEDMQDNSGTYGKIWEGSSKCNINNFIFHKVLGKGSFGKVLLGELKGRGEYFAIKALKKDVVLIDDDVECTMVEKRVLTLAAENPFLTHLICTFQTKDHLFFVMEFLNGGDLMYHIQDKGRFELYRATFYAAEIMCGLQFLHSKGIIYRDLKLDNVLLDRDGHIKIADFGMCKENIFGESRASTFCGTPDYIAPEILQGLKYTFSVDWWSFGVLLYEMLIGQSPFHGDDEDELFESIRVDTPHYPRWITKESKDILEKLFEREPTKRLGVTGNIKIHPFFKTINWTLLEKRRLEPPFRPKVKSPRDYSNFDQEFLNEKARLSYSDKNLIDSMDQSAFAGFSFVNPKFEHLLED", "text": "as §1"}, "ROS1": {"target": "ROS1 (Homo sapiens, UniProt P08922)", "text": "as §1"}, "SBK1": {"target": "SBK1 (Homo sapiens, UniProt Q52WX2)", "sequence (Q52WX2 whole entry)": "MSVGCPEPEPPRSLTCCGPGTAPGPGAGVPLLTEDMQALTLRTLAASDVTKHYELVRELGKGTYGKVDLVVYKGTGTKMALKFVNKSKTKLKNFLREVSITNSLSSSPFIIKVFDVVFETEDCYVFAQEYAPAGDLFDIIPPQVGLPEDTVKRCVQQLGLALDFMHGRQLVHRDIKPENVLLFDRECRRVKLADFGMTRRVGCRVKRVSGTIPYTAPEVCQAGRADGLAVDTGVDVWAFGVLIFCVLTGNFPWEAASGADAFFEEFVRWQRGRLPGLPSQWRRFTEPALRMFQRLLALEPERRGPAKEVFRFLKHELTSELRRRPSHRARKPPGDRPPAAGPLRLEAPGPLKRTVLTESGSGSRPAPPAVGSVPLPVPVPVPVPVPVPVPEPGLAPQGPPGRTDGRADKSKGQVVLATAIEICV", "text": "as §1"}, "SIK": {"target": "T8, SIK (Homo sapiens, UniProt P57059)", "T8 construct": "gene SIK1", "text": "as §1"}, "STK33": {"target": "STK33 (Homo sapiens, UniProt Q9BYT3)", "text": "as §1"}, "STK39": {"target": "STK39 (Homo sapiens, UniProt Q9UEW8)", "text": "as §1"}, "WEE2": {"target": "WEE2 (Homo sapiens, UniProt P0C1S8)", "sequence (P0C1S8 whole entry)": "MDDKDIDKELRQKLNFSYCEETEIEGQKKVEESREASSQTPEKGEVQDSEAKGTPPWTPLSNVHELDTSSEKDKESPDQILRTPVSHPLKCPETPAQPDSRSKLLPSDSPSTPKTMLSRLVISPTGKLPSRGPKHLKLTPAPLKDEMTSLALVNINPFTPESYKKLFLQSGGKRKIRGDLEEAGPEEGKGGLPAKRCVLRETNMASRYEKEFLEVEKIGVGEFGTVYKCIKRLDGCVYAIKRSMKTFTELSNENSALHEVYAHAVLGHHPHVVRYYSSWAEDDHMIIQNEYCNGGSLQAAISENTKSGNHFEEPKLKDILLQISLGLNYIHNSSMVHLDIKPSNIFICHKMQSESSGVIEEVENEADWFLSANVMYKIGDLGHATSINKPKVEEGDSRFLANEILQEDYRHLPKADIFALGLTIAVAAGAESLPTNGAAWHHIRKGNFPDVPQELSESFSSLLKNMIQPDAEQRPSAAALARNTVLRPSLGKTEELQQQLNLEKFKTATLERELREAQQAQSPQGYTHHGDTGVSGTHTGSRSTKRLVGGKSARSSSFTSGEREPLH", "text": "as §1"}, "ZAP70": {"target": "ZAP70 (Homo sapiens, UniProt P43403)", "text": "as §1"}},
  "data": [
    {"smiles": "Cn1c(=O)[nH]c2ccc(-c3cccc(C(=O)NC4CCn5ccnc5C4)c3)cc21", "note": "(stereo not shown) [Z36-MP5]", "values": [
      {"measurement": "remaining binding at 1 µM", "setting": "ADCK3", "value": 39, "unit": "%"},
      {"measurement": "remaining binding at 1 µM", "setting": "ALK(C1156Y)", "value": 92, "unit": "%"},
      {"measurement": "remaining binding at 1 µM", "setting": "BMPR1A", "value": 100, "unit": "%"},
      {"measurement": "remaining binding at 1 µM", "setting": "CLK1", "value": 96, "unit": "%"},
      {"measurement": "remaining binding at 1 µM", "setting": "ERBB2", "value": 100, "unit": "%"},
      {"measurement": "remaining binding at 1 µM", "setting": "FAK", "value": 88, "unit": "%"},
      {"measurement": "remaining binding at 1 µM", "setting": "FGFR2", "value": 37, "unit": "%"},
      {"measurement": "remaining binding at 1 µM", "setting": "FGR", "value": 85, "unit": "%"},
      {"measurement": "remaining binding at 1 µM", "setting": "HCK", "value": 95, "unit": "%"},
      {"measurement": "remaining binding at 1 µM", "setting": "KIT(D816H)", "value": 78, "unit": "%"},
      {"measurement": "remaining binding at 1 µM", "setting": "MAP4K4", "value": 67, "unit": "%"},
      {"measurement": "remaining binding at 1 µM", "setting": "MEK4", "value": 84, "unit": "%"},
      {"measurement": "remaining binding at 1 µM", "setting": "MLCK", "value": 91, "unit": "%"},
      {"measurement": "remaining binding at 1 µM", "setting": "MLK1", "value": 98, "unit": "%"},
      {"measurement": "remaining binding at 1 µM", "setting": "PFTAIRE2", "value": 90, "unit": "%"},
      {"measurement": "remaining binding at 1 µM", "setting": "PIK3CB", "value": 71, "unit": "%"},
      {"measurement": "remaining binding at 1 µM", "setting": "PIK4CB", "value": 100, "unit": "%"},
      {"measurement": "remaining binding at 1 µM", "setting": "PRKCD", "value": 97, "unit": "%"},
      {"measurement": "remaining binding at 1 µM", "setting": "ROS1", "value": 51, "unit": "%"},
      {"measurement": "remaining binding at 1 µM", "setting": "SBK1", "value": 74, "unit": "%"},
      {"measurement": "remaining binding at 1 µM", "setting": "SIK", "value": 81, "unit": "%"},
      {"measurement": "remaining binding at 1 µM", "setting": "STK33", "value": 92, "unit": "%"},
      {"measurement": "remaining binding at 1 µM", "setting": "STK39", "value": 60, "unit": "%"},
      {"measurement": "remaining binding at 1 µM", "setting": "WEE2", "value": 96, "unit": "%"},
      {"measurement": "remaining binding at 1 µM", "setting": "ZAP70", "value": 91, "unit": "%"}
    ]}
  ]
}
